Source: patent US4983597A, “Beta-lactams as anticholesterolemic agents” (Merck & Co., Inc., priority 1989, dated 1991)

target: T1, HMG-CoA synthase (Rattus norvegicus, UniProt P17425); assay: HMG-CoA Synthase Inhibition Assay; type: biochemical; settings: Table I; rat liver enzyme, 1-[14C]-acetyl-CoA incorporation
T1 construct: The livers from male Charles River CD rats (225-350 g) were homogenized; from tissue; host or cells: rat liver (male Charles River CD rats), 100,000 x g supernatant, ammonium sulfate and DEAE-52 fraction
T1 sequence (P17425 1-520): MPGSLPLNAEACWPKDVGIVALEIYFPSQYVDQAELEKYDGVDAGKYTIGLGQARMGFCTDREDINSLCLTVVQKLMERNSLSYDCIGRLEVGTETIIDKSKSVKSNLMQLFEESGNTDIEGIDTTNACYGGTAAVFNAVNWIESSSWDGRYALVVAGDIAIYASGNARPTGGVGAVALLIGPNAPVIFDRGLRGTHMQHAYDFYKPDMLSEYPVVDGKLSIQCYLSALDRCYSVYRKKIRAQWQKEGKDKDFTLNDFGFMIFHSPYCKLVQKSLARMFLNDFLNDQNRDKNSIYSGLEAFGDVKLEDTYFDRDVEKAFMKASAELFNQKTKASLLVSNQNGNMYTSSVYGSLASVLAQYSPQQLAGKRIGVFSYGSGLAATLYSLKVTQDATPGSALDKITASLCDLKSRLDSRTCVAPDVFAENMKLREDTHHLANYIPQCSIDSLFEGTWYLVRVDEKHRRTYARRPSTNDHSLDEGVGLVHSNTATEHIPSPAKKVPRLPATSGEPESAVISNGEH
Method: The intrinisic HMG-CoA synthase inhibition activity of the compounds of this invention is measured by the standard in vitro protocol described below:
The livers from male Charles River CD rats (225-350 g) were homogenized in 0.25 M sucrose which was adjusted with phenylmethylsulfonylfluoride (PMSF) and N-p-tosyl-1-lysine chloromethyl ketone (TLCK) so that the final concentration of each was […], respectively. The homogenate was centrifuged at 15,000× g for 20 minutes, the supernatant filtered through a fine nylon screen to remove most of the fat layer and recentrifuged at 100,000× g for 1 hour. This supernatant was removed and 1 M potassium phosphate, dithiothreitol (DTT) and ethylene glycolbis(β-aminoethyl ether)-N,N,N',N'-tetraacetic acid (EGTA) added to give a final concentration of 0.1 M (pH 7.2), 0.5 mM and 0.1 mM, respectively. Solid ammonium sulfate was added to 50% saturation to the protein solution, it was centrifuged at 15,000× g and the supernatant discarded. This precipitated protein could be stored at -70° C. for at least one month with very little loss of activity. The ammonium sulfate precipitate was dissolved in an minimal amount of 0.06 M potassium phosphate buffer (pH 7.2) containing 0.5 mM dithiothreitol and 0.1 mM EGTA (referred to as 0.06 M phosphate buffer) and dialyzed overnight against 2 liters of the same buffer to remove the ammonium sulfate and to inactivate HMG-CoA lyase [Clinkenbeard, et al., J. Biol. Chem. 250, 3108-3116(1975)].
The dialyzed extract was added to a column of DEAE-52 (Whatman) which had been equilibrated with 0.06 M phosphate buffer (10 mg of protein in 1 ml bed volume of the resin). The DEAE-cellulose was eluted with 0.06 M phosphate buffer until the optical density at 280 nm was essentially zero. This fraction contained the β-ketoacetyl-CoA thiolase activity. The HMG-CoA synthase was eluted from the column with 0.1 M phosphate buffer (pH 7.2) containing 0.5 mM DTT and […] EGTA, and was virtually free of all thiolase activity. The protein was precipitated by the addition of ammonium sulfate to give 50% saturation. This solution was stirred for 10 minutes at 4° C. and the precipitate collected by centrifugation at 15,000 rpm for 10 minutes. The supernatant was discarded and the precipitate dissolved in a minimum of 0.06 M phosphate buffer, pH 7.2 (about 10 ml) and the enzyme stored at -80° C.
HMG-CoA Synthase Inhibition Assay
Enzyme protein (ca. 24 mg) was added to a solution containing […] Tris-HCl (pH 8.0), 11.7 μM MgCl2, 1.17 μM ethylenediaminetetraacetic acid (EDTA), 0.58 μM dithiothreitol, and the indicated concentrations of the test compound (added as a 2 mg/ml solution in dimethylsulfoxide). The incubation took place in a volume of 0.085 ml at 30° in a shaking water bath. After 5 minutes, […] of a solution containing acetoacetyl-CoA and 0.1 μCi of 1-[^14 C]-acetyl-CoA was added to give a final concentrations of 0.1 and 0.4 μM, respectively. The incubation was continued for 10 more minutes and the reaction stopped by the addition of […] of the assay mixture to 0.2 ml of 6N HCl in a glass scintillation vial. The vial was heated for 1 hour at 120° after which time 0.2 ml more of 6N HCl was again added to each vial and the heating continued for another hour. Following this, 1.0 ml of 0.9% saline was added to each vial and finally 10 ml of scintillation liquid. Radioactivity was determined in a Packard Tri-Carb liquid scintillation counter. Percent inhibition is calculated by the formula: [formula]
IC50 values were determined by plotting the log of the concentration of the test compound verses the percentage inhibition and fitting a straight line to the resulting data by using the least squares method.

Compound	IC50
CC[C@@H]1C(=O)N(S(=O)(=O)c2ccc(C)cc2)[C@@H]1COC(=O)c1ccc(OCc2ccccc2)cc1 (relative stereo) [Table I q]	40 nM
CC[C@@H]1C(=O)N(S(=O)(=O)c2ccc(C)cc2)[C@@H]1COC(=O)c1ccncc1 (relative stereo) [Table I d]	62 nM
CC[C@@H]1C(=O)N(S(=O)(=O)c2ccc(C)cc2)[C@@H]1COC(=O)c1ccc2ccccc2n1 (relative stereo) [Table I p]	21 nM
CC[C@@H]1C(=O)N(S(=O)(=O)c2ccc(C)cc2)[C@@H]1COC(=O)c1ccc(C(=O)OC(c2ccccc2)c2ccccc2)cc1 (relative stereo) [Table I w]	62 nM
CCC[C@@H]1C(=O)N(S(=O)(=O)c2ccc(C)cc2)[C@@H]1COC(=O)c1ccc(OC)cc1 (relative stereo) [Table I z]	69.5 nM
COc1ccc(C(=O)OC[C@H]2[C@H](CO)C(=O)N2S(=O)(=O)c2ccc(C)cc2)cc1 (relative stereo) [Table I ss]	150 nM
C=CCOc1c(OC)cc(C(=O)OC[C@@H]2[C@H](CC)C(=O)N2S(=O)(=O)c2ccc(C)cc2)cc1[N+](=O)[O-] (relative stereo) [Table I ll]	160 nM
CC[C@@H]1C(=O)N(S(=O)(=O)c2ccc(C)cc2)[C@@H]1COC(=O)c1ccccc1 (relative stereo) [Table I dd]	110 nM
CC[C@@H]1C(=O)N(S(=O)(=O)c2ccc(C)cc2)[C@@H]1COC(=O)c1ccccn1 (relative stereo) [Table I e]	54 nM
COc1ccc(C(=O)OC[C@@H]2[C@H](CO)C(=O)N2S(=O)(=O)c2ccc(C)cc2)cc1 (relative stereo) [Table I aa]	180 nM

same assay, conditions: Table II; rat liver enzyme, 1-[14C]-acetyl-CoA incorporation

Compound	IC50
CCOc1ccc(CC(=O)OC[C@H]2[C@@H](CC)C(=O)N2S(=O)(=O)c2ccc(C)cc2)cc1 (relative stereo) [Table II r]	22 nM
CO[C@@H](C(=O)OC[C@@H]1CC(=O)N1S(=O)(=O)c1ccc(C)cc1)c1ccccc1 [Table II f]	50 nM
CC[C@@H]1C(=O)N(S(=O)(=O)c2ccc(C)cc2)[C@@H]1COC(=O)/C=C/c1ccc(OC)cc1 (relative stereo) [Table II a]	9.5 nM
CC[C@H]1C(=O)N(S(=O)(=O)c2ccc(C)cc2)[C@H]1COC(=O)Nc1ccc(C)cc1 (relative stereo) [Table II v]	52 nM
CC[C@@H]1C(=O)N(S(=O)(=O)c2ccc(C)cc2)[C@@H]1COC(=O)/C=C/c1ccco1 (relative stereo) [Table II m]	250 nM
CC[C@H]1C(=O)N(S(=O)(=O)c2ccc(C)cc2)[C@H]1COC(=O)CSc1ccccc1 (relative stereo) [Table II q]	42 nM

same assay, conditions: Table IV; rat liver enzyme, 1-[14C]-acetyl-CoA incorporation

Compound	IC50
Cc1ccc(S(=O)(=O)N2C(=O)[C@H](CO)[C@H]2C=Cc2ccccc2)cc1 (relative stereo) [Table IV c]	1100 nM

same assay, conditions: Table V; rat liver enzyme, 1-[14C]-acetyl-CoA incorporation

Compound	IC50
CCC1C(=O)N(S(=O)(=O)c2ccc(C)cc2)C1C(C)Cc1ccccc1 (stereo not shown) [Table V d]	175 nM
CC[C@H]1C(=O)N(S(=O)(=O)c2ccc(C)cc2)[C@H]1CCc1ccccc1 (relative stereo) [Table V b]	86 nM
CC(=O)OC(c1ccccc1)C(C)C1CC(=O)N1S(=O)(=O)c1ccc(C)cc1 (stereo not shown) [Table V f]	490 nM

same assay, conditions: Table VI; rat liver enzyme, 1-[14C]-acetyl-CoA incorporation

Compound	IC50
Cc1ccc(S(=O)(=O)N2C(=O)C(C)(C)C2CCc2ccccc2)cc1 (stereo not shown) [Table VI a]	1800 nM
Cc1ccc(S(=O)(=O)N2C(=O)C(C)(C)C2C=Cc2ccccc2)cc1 (stereo not shown) [Table VI c]	680 nM
